Data from US20230233569A1 (Revolution Medicines, Inc., priority 2020, published 2023).
Like-named read-outs stand apart in the source and are kept apart here.

Experiments:
Assay in all cases: Ras-Raf disruption / FRET / MOA assay (BRAF RBD)
Format in all cases: biochemical
KRAS G12S = KRAS G12S (Homo sapiens, UniProt P01116+P62937, G12S); conditions: with Cyclophilin A
Excerpt: (§1) Disruption of […] Ras-binding Domain (BRAF^RBD) Interaction with K-Ras by Compounds of the Invention (also Called a FRET Assay or an MOA Assay)
(§2) Note—The following protocol describes a procedure for monitoring disruption of K-Ras G12C (GMP-PNP) binding to BRAF^RBD by a compound of the invention. This protocol may also be executed substituting other Ras proteins or nucleotides, such as K-Ras G12D and K-Ras G13D.
(§3) The purpose of this biochemical assay was to measure the ability of test compounds to facilitate ternary complex formation between a nucleotide-loaded K-Ras isoform and Cyclophilin A; the resulting ternary complex disrupts binding to a BRAF^RBD construct, inhibiting K-Ras signaling through a RAF effector. Data is reported as IC50 values.
(§4) In assay buffer containing 25 mM HEPES pH 7.3, 0.002% Tween20, 0.1% BSA, 100 mM NaCl and 5 mM MgCl2, tagless Cyclophilin A, His6-K-Ras-GMPPNP, and GST-BRAF^RBD were combined in a 384-well assay plate at final concentrations of 25 μM, 12.5 nM, and 50 nM, respectively. Compound was present in plate wells as a 10-point 3-fold dilution series starting at a final concentration of 30 μM. After incubation at 25° C. for 3 hours, a mixture of anti-His Eu-W1024 and anti-GST allophycocyanin was then added to assay sample wells at final concentrations of 10 nM and 50 nM, respectively, and the reaction incubated for an additional 1.5 hours. […] Compounds that facilitate disruption of a K-Ras:RAF complex were identified as those eliciting a decrease in the TR-FRET ratio relative to DMSO control wells.

KRAS WT = KRAS WT (Homo sapiens, UniProt P01116+P62937); conditions: with Cyclophilin A
KRAS WT, sequence (P01116 1-169 isoform P01116-2 limits assumed): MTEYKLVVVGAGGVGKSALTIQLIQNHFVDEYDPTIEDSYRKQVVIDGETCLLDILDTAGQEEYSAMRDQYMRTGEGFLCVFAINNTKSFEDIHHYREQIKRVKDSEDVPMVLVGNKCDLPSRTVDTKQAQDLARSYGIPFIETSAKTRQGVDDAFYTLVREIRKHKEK
KRAS WT, sequence (P62937 whole entry): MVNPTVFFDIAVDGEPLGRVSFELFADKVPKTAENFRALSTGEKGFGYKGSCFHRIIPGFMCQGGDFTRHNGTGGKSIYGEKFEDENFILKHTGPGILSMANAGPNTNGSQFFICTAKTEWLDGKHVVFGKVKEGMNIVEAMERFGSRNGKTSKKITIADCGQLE
Excerpt: as §1, §2, §3, §4

KRAS G13C = KRAS G13C (Homo sapiens, UniProt P01116+P62937, G13C); conditions: with Cyclophilin A
KRAS G13C, sequence (P01116 1-169 isoform P01116-2 G13C limits assumed): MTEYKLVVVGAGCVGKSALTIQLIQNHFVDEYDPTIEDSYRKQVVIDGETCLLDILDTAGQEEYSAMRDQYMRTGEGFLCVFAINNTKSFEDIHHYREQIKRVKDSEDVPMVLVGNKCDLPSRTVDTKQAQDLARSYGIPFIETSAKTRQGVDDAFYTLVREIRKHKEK
KRAS G13C, sequence (P62937 whole entry): as the sequence (P62937 whole entry) above
Excerpt: as §1, §2, §3, §4

NRAS G12C = NRAS G12C (Homo sapiens, UniProt P01111+P62937, G12C)
NRAS G12C, sequence (P01111 whole entry G12C): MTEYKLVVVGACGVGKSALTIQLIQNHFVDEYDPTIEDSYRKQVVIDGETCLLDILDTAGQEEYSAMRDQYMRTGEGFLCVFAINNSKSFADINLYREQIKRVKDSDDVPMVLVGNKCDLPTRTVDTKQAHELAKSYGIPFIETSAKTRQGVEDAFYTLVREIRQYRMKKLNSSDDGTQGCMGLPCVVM
NRAS G12C, sequence (P62937 whole entry): as the sequence (P62937 whole entry) above
Excerpt: as §1, §2, §3, §4

KRAS G12V = KRAS G12V (Homo sapiens, UniProt P01116+P62937, G12V); conditions: with Cyclophilin A
KRAS G12V, sequence (P01116 1-169 isoform P01116-2 G12V limits assumed): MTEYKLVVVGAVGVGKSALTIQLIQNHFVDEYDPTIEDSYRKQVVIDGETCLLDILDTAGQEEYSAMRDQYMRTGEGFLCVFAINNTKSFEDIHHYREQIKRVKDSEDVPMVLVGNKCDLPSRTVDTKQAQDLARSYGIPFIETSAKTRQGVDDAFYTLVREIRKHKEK
KRAS G12V, sequence (P62937 whole entry): as the sequence (P62937 whole entry) above
Excerpt: as §1, §2, §3, §4

KRAS G13D = KRAS G13D (Homo sapiens, UniProt P01116+P62937, G13D); conditions: with Cyclophilin A
KRAS G13D, sequence (P01116 1-169 isoform P01116-2 G13D limits assumed): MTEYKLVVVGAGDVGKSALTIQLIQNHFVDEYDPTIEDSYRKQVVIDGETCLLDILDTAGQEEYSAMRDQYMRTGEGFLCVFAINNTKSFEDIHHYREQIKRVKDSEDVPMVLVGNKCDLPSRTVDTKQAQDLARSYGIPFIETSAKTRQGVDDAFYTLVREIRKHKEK
KRAS G13D, sequence (P62937 whole entry): as the sequence (P62937 whole entry) above
Excerpt: as §1, §2, §3, §4

KRAS G12D = KRAS G12D (Homo sapiens, UniProt P01116+P62937, G12D); conditions: with Cyclophilin A
KRAS G12D, sequence (P01116 1-169 isoform P01116-2 G12D limits assumed): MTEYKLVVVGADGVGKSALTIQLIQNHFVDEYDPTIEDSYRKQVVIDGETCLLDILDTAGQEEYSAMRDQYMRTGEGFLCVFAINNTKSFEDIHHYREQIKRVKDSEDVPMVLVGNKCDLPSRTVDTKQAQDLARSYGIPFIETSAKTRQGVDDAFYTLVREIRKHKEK
KRAS G12D, sequence (P62937 whole entry): as the sequence (P62937 whole entry) above
Excerpt: as §1, §2, §3, §4

KRAS G12C = KRAS G12C (Homo sapiens, UniProt P01116+P62937, G12C); conditions: with Cyclophilin A
KRAS G12C, sequence (P01116 1-169 isoform P01116-2 G12C limits assumed): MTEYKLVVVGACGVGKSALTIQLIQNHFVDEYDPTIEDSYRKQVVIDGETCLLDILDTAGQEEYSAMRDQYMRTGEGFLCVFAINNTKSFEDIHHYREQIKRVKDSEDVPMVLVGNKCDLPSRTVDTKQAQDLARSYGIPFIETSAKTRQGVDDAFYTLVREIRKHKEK
KRAS G12C, sequence (P62937 whole entry): as the sequence (P62937 whole entry) above
Excerpt: as §1, §2, §3, §4
as §3, with “is” for “was”, “Ras” for “K-Ras”, “cyclophilin” for “Cyclophilin”, “effector.” for “effector. Data is reported as IC50 values.”
In assay buffer containing 25 mM HEPES pH 7.3, 0.002% Tween20, 0.1% BSA, 100 mM NaCl and 5 mM MgCl2, tagless Cyclophilin A, His6-K-Ras-GMPPNP (or other Ras variant), and GST-BRAF^RBD are combined in a 384-well assay plate at final concentrations of 25 μM, 12.5 nM and 50 nM, respectively. Compound is present in plate wells as a 10-point 3-fold dilution series starting at a final concentration of 30 μM. After incubation at 25° C. for 3 hours, a mixture of Anti-His Eu-W1024 and anti-GST allophycocyanin is then added to assay sample wells at final concentrations of 10 nM and 50 nM, respectively, and the reaction incubated for an additional 1.5 hours. […] Compounds that facilitate disruption of a Ras:RAF complex are identified as those eliciting a decrease in the TR-FRET ratio relative to DMSO control wells.

[1] = Ras-Raf disruption, read-out: KRAS G12S FRET data IC50
[2] = Ras-Raf disruption, read-out: KRAS WT FRET data IC50
[3] = Ras-Raf disruption, read-out: KRAS G13C FRET data IC50
[4] = NRAS G12C, read-out: NRAS G12C FRET data IC50
[5] = Ras-Raf disruption, read-out: KRAS G12V FRET data IC50
[6] = Ras-Raf disruption, read-out: KRAS G13D FRET data IC50
[7] = Ras-Raf disruption, read-out: KRAS G12D FRET data IC50
[8] = Ras-Raf disruption, read-out: KRAS G12C FRET data IC50

KRAS G12S, sequence (P01116 1-169 isoform P01116-2 G12S limits assumed): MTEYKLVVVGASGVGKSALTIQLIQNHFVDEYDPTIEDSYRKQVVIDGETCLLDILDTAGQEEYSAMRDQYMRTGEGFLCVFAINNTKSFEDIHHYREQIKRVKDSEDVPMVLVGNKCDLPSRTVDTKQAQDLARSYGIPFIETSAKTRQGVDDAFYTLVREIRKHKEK
KRAS G12S, sequence (P62937 whole entry, the tested form may be a part): as the sequence (P62937 whole entry) above

| Compound | IC50 (KRAS G12S; KRAS G12S FRET data IC50, Ras-Raf disruption) [µM] | IC50 (KRAS WT; KRAS WT FRET data IC50, Ras-Raf disruption) [µM] | IC50 (KRAS G13C; KRAS G13C FRET data IC50, Ras-Raf disruption) [µM] | IC50 (NRAS G12C; NRAS G12C FRET data IC50, NRAS G12C) [µM] | IC50 (KRAS G12V; KRAS G12V FRET data IC50, Ras-Raf disruption) [µM] | IC50 (KRAS G13D; KRAS G13D FRET data IC50, Ras-Raf disruption) [µM] | IC50 (KRAS G12D; KRAS G12D FRET data IC50, Ras-Raf disruption) [µM] | IC50 (KRAS G12C; KRAS G12C FRET data IC50, Ras-Raf disruption) [µM] | IC50 (KRAS G12S; [1]) [µM] | IC50 (KRAS WT; [2]) [µM] | IC50 (KRAS G13C; [3]) [µM] | IC50 (NRAS G12C; [4]) [µM] | IC50 (KRAS G12V; [5]) [µM] | IC50 (KRAS G13D; [6]) [µM] | IC50 (KRAS G12D; [7]) [µM] | IC50 (KRAS G12C; [8]) [µM] |
| --- | --- | --- | --- | --- | --- | --- | --- | --- | --- | --- | --- | --- | --- | --- | --- | --- |
| CCn1c(-c2cccnc2[C@H](C)OC)c2c3cc(ccc31)-c1cc(O)cc(c1)C[C@H](NC(=O)[C@H](C(C)C)N(C)C(=O)CN(C)C(=O)[C@H]1CN1)C(=O)N1CCC[C@H](N1)C(=O)OCC(C)(C)C2 (single isomer, unassigned) [Example 42B] | 1 to 10 | 1 to 10 | 0.1 to 1 | 0.1 to 1 | 1 to 10 | 1 to 10 | 1 to 10 | 0.1 to 1 |  |  |  |  |  |  |  |  |
| CCn1c(-c2cccnc2[C@H](C)OC)c2c3cc(ccc31)-c1cc(O)cc(c1)C[C@H](NC(=O)[C@H](C(C)C)N(C)C(=O)[C@H]1CCN(C(=O)[C@H]3CN3)C1)C(=O)N1CCC[C@H](N1)C(=O)OCC(C)(C)C2 (single isomer, unassigned) [Example 43A] |  |  |  |  |  |  |  |  | 0.01 to 0.1 | 0.01 to 0.1 | 0.01 to 0.1 | < 0.01 | 0.01 to 0.1 | 0.01 to 0.1 | 0.01 to 0.1 | < 0.01 |
| CCn1c(-c2cccnc2[C@H](C)OC)c2c3cc(ccc31)-c1cc(O)cc(c1)C[C@H](NC(=O)[C@H](C(C)C)N(C)C(=O)[C@H]1CCN(S(=O)(=O)[C@@H]3CN3C)C1)C(=O)N1CCC[C@H](N1)C(=O)OCC(C)(C)C2 (single isomer, unassigned) [Example 56] |  |  |  |  |  |  |  |  | 0.1 to 1 | 0.1 to 1 | 0.01 to 0.1 | 0.1 to 1 | 0.1 to 1 | 0.1 to 1 | 0.1 to 1 | 0.01 to 0.1 |
| CCn1c(-c2cccnc2[C@H](C)OC)c2c3cc(ccc31)-c1cc(O)cc(c1)C[C@H](NC(=O)[C@H](C(C)C)N(C)C(=O)[C@H]1CCN(S(=O)(=O)[C@H]3CN3C)C1)C(=O)N1CCC[C@H](N1)C(=O)OCC(C)(C)C2 (single isomer, unassigned) [Example 57] |  |  |  |  |  |  |  |  | 0.1 to 1 | 0.1 to 1 | 0.01 to 0.1 | 0.1 to 1 | 0.1 to 1 | 0.1 to 1 | 1 to 10 | 0.1 to 1 |
| CCn1c(-c2cccnc2[C@H](C)OC)c2c3cc(ccc31)-c1cc(O)cc(c1)C[C@H](NC(=O)[C@H](C(C)C)N(C)C(=O)C1CN(S(=O)(=O)[C@@H]3CN3C)C1)C(=O)N1CCC[C@H](N1)C(=O)OCC(C)(C)C2 (single isomer, unassigned) [Example 118] |  |  |  |  |  |  |  |  | 0.1 to 1 | 0.1 to 1 | 0.01 to 0.1 | 0.1 to 1 | 0.1 to 1 | 0.1 to 1 | 1 to 10 | 0.1 to 1 |
| CCn1c(-c2cnccc2COC)c2c3cc(ccc31)-c1cccc(c1)C[C@H](NC(=O)[C@H](C(C)C)N(C)C(=O)CCN=C=NCCOC)C(=O)N1CCC[C@H](N1)C(=O)OCC(C)(C)C2 [23 A and B] |  |  |  |  |  |  |  |  | 1 to 10 | 1 to 10 | 1 to 10 | 0.01 to 0.1 | > 10 | > 10 | 1 to 10 | 0.01 to 0.1 |
| CCn1c(-c2cnccc2COC)c2c3cc(ccc31)-c1cccc(c1)C[C@H](NC(=O)[C@H](C(C)C)N(C)C(=O)CCN=C=NCc1c(OC)cccc1OC)C(=O)N1CCC[C@H](N1)C(=O)OCC(C)(C)C2 [62 A and B] |  |  |  |  |  |  |  |  | 1 to 10 | 1 to 10 | 1 to 10 | 1 to 10 | > 10 | 1 to 10 | 1 to 10 | 1 to 10 |
